Experimental data taken from the CheMixHub viscosity set.

Test: xn = mol fraction of the nth substance listed

CCCCCCCCCC(=O)OCC + CCCCO
viscosity [mPa·s], 100 kPa
Settings | x1 = 0.1006 | x1 = 0.2001 | x1 = 0.3011 | x1 = 0.3996 | x1 = 0.4999 | x1 = 0.6021 | x1 = 0.7009 | x1 = 0.7986 | x1 = 0.9001
293.15 K | 2.504 | 2.299 | 2.212 | 2.15 | 2.125 | 2.139 | 2.168 | 2.2 | 2.258
298.15 K | 2.217 | 2.037 | 1.967 | 1.916 | 1.914 | 1.921 | 1.962 | 1.984 | 2.047
303.15 K | 1.977 | 1.825 | 1.769 | 1.733 | 1.727 | 1.738 | 1.777 | 1.798 | 1.854
308.15 K | 1.764 | 1.643 | 1.596 | 1.568 | 1.569 | 1.581 | 1.608 | 1.639 | 1.687
313.15 K | 1.581 | 1.488 | 1.455 | 1.433 | 1.431 | 1.444 | 1.469 | 1.501 | 1.543
318.15 K | 1.424 | 1.344 | 1.322 | 1.305 | 1.31 | 1.324 | 1.355 | 1.379 | 1.42

CCCCN + CCCCOC(C)=O
303.15 K, 101 kPa
Settings | viscosity [mPa·s]
x1 = 0.21 | 0.6407
x1 = 0.2909 | 0.637
x1 = 0.4108 | 0.6349
x1 = 0.5598 | 0.6248
x1 = 0.64 | 0.6218
x1 = 0.7026 | 0.6038
x1 = 0.8413 | 0.5869
x1 = 0.9148 | 0.5794

O=C(O)C(Cl)(Cl)Cl + CCCCOC(C)=O
323.15 K, 101 kPa
Settings | viscosity [mPa·s]
x2 = 0.104 | 4.361
x2 = 0.187 | 3.749
x2 = 0.3013 | 2.85
x2 = 0.379 | 2.406
x2 = 0.494 | 1.798
x2 = 0.584 | 1.419
x2 = 0.7106 | 0.996
x2 = 0.7901 | 0.81
x2 = 0.929 | 0.588

CCCCCCCCCC(=O)OCC + CCCO
viscosity [mPa·s], 100 kPa
Settings | x1 = 0.1002 | x1 = 0.2005 | x1 = 0.2999 | x1 = 0.4 | x1 = 0.4999 | x1 = 0.601 | x1 = 0.7 | x1 = 0.7998 | x1 = 0.9011
293.15 K | 2.031 | 1.963 | 1.956 | 1.986 | 2.013 | 2.057 | 2.123 | 2.176 | 2.25
298.15 K | 1.809 | 1.759 | 1.757 | 1.786 | 1.814 | 1.854 | 1.912 | 1.97 | 2.029
303.15 K | 1.618 | 1.586 | 1.587 | 1.611 | 1.642 | 1.681 | 1.74 | 1.78 | 1.845
308.15 K | 1.456 | 1.433 | 1.438 | 1.461 | 1.493 | 1.53 | 1.578 | 1.623 | 1.681
313.15 K | 1.315 | 1.299 | 1.309 | 1.333 | 1.364 | 1.403 | 1.446 | 1.486 | 1.538
318.15 K | 1.192 | 1.183 | 1.196 | 1.22 | 1.25 | 1.285 | 1.33 | 1.368 | 1.415

CCCCN + CCCO
viscosity [mPa·s]
Settings | 298.15 K | 303.15 K | 313.15 K
100 kPa, x2 = 0.1 | 0.534 | – | –
100 kPa, x2 = 0.198 | 0.612 | – | –
100 kPa, x2 = 0.301 | 0.711 | – | –
100 kPa, x2 = 0.417 | 0.846 | – | –
100 kPa, x2 = 0.501 | 0.965 | – | –
100 kPa, x2 = 0.6 | 1.117 | – | –
100 kPa, x2 = 0.695 | 1.273 | – | –
100 kPa, x2 = 0.786 | 1.451 | – | –
100 kPa, x2 = 0.925 | 1.76 | – | –
101.33 kPa, x1 = 0.095 | – | 1.64 | 1.281
101.33 kPa, x1 = 0.1888 | – | 1.48 | 1.159
101.33 kPa, x1 = 0.2913 | – | 1.286 | 1.018
101.33 kPa, x1 = 0.3804 | – | 1.129 | 0.9048
101.33 kPa, x1 = 0.5153 | – | 0.9113 | 0.7453
101.33 kPa, x1 = 0.6163 | – | 0.7686 | 0.6425
101.33 kPa, x1 = 0.7142 | – | 0.6509 | 0.5578
101.33 kPa, x1 = 0.788 | – | 0.5832 | 0.5009
101.33 kPa, x1 = 0.9022 | – | 0.4992 | 0.4349

CC[N+](=O)[O-] + CCCO
viscosity [mPa·s], 101.33 kPa
Settings | 293.15 K | 303.15 K | 313.15 K
x2 = 0.05 | 0.686 | 0.609 | 0.544
x2 = 0.1 | 0.683 | 0.605 | 0.539
x2 = 0.1499 | 0.69 | 0.607 | 0.539
x2 = 0.2001 | 0.702 | 0.617 | 0.547
x2 = 0.25 | 0.72 | 0.629 | 0.554
x2 = 0.3 | 0.748 | 0.647 | 0.567
x2 = 0.35 | 0.776 | 0.667 | 0.581
x2 = 0.4 | 0.808 | 0.694 | 0.609
x2 = 0.45 | 0.848 | 0.724 | 0.623
x2 = 0.5 | 0.898 | 0.758 | 0.655
x2 = 0.55 | 0.951 | 0.8 | 0.681
x2 = 0.6 | 1.016 | 0.852 | 0.718
x2 = 0.65 | 1.085 | 0.902 | 0.756
x2 = 0.7 | 1.17 | 0.967 | 0.808
x2 = 0.75 | 1.282 | 1.043 | 0.881
x2 = 0.8 | 1.391 | 1.133 | 0.947
x2 = 0.85 | 1.539 | 1.243 | 1.035
x2 = 0.9 | 1.717 | 1.377 | 1.125
x2 = 0.95 | 1.945 | 1.559 | 1.239

Cc1ccncc1 + CCCO
298.15 K, 101.33 kPa
Settings | viscosity [mPa·s]
x2 = 0.091 | 0.9024
x2 = 0.2095 | 0.9381
x2 = 0.3419 | 1.007
x2 = 0.4177 | 1.071
x2 = 0.5662 | 1.168
x2 = 0.7017 | 1.327
x2 = 0.7646 | 1.405
x2 = 0.8291 | 1.52
x2 = 0.867 | 1.591

O=[N+]([O-])c1ccc(O)cc1 + CCN(CC)CC
298.16 K, 101 kPa
Settings | viscosity [mPa·s]
x1 = 0.5818 | 294.3
x1 = 0.5939 | 366.2
x1 = 0.6179 | 606.8
x1 = 0.6393 | 908.7
x1 = 0.6718 | 2449
x1 = 0.6969 | 3733
x1 = 0.7221 | 6669
x1 = 0.739 | 7410
x1 = 0.7731 | 8242
x1 = 0.7883 | 7522
x1 = 0.8008 | 6867
x1 = 0.8106 | 6269

CCC(=O)OCCN1CCNCC1 + CCO
Settings | viscosity [mPa·s]
293.15 K, 100 kPa, x1 = 0.1216 | 37.45
